Series [1] concerns EGFR expressing cells (HeLa). Type of series: cell-based.
For series [2], the system named is EGFR expressing cells (A431). Type of series: cell-based.
The subject of a further series is HeLa cells. In words: cells. Format: cell-based. The procedure: (§1) (FIGS. 66a and 66B). Next toxicity was determined, for this the modified saponins were titrated on HeLa and A431 cells. […] Next toxicity was determined, for this the modified saponins were titrated on HeLa and A431 cells.
In a further series the test system is A431 cells. In words: cells. Type of series: cell-based. The procedure: as §1
The nature of series [3]: Critical micellar concentration (CMC) by ANS fluorescence. Type of series: physicochemical. As to conditions: Table A7; determined in PBS. The procedure:
The critical micellar concentration (CMC) of saponins derived from Saponaria officinalis (SO) (Table A7) and derived from Quillaja saponaria (QS) (Table A8, and Table A9) was determined by the method of DeVendittis et al. (A fluorimetric method for the estimation of the critical micelle concentration of surfactants, Analytical Biochemistry, Volume 115, Issue 2, August 1981, Pages 278-286) as follows:
(§2) The emission spectrum of 8-Anilinonaphthalene-1-sulfonic acid (ANS) in either purified water (MQ) or PBS (Dulbecco's PBS+/+) was determined at dry weight concentrations of saponins ranging from 1 to 1400 pM to cover the range below and above the CMC. Above the CMC, the fluorescence yield of ANS increases and the wavelength of maximum emission decreases due to portioning of the fluorescent dye into micelles. Fluorescence yields were recorded on a Fluoroskan Ascent FL (Thermo Scientific) at an excitation wavelength of 355 nm, and an emission wavelength of 460 nm. 6 μg at a concentration of 75.86 pM of ANS were used per sample and measurement.
The critical micellar concentration (CMC) of saponins was determined by the method of DeVendittis et al. (A fluorimetric method for the estimation of the critical micelle concentration of surfactants, Analytical Biochemistry, Volume 115, Issue 2, August 1981, Pages 278-286) as follows:
as §2, with “μM” for “pM”

For a further series, the system named is human red blood cells. In words: cells. Format: cell-based. The procedure:
Red blood cells (RBCs) were isolated from a buffy coat using a Ficoll gradient. The obtained RBC pellet (˜4-5 ml) was washed 2× with 50 ml DPBS (without Ca^2+/Mg^2+, PAN-Biotech GmbH). Cells were pelleted by centrifugation for 10 min, 800×g at RT. RBC were counted and resuspended at 500.000.000 c/ml in DPBS (without Ca^2+/Mg^2+), based on total cell count.
Saponin dilutions were prepared in DPBS (with Ca^2+/Mg^2+, PAN-Biotech GmbH), at 1.11× final strength. For positive lysis control a 0.02% Triton-X100 solution was prepared in DPBS^+/+. Of all compound solutions 135 μl was dispensed/well in a 96 well V-bottom plate. To this 15 μl RBC suspension was added and mixed shortly (10 sec-600 rpm). The plate was incubated 30 min at RT, with gentle agitation. Afterwards the plate was spun for 10 min at 800×g to pellet the RBC and 100-120 μl supernatant was transferred to a standard 96 wp (96 well-plate).
Saponin dilutions were prepared in DPBS (with Ca^2+/Mg^2+, PAN-Biotech GmbH), at 1.11× final strength. For positive lysis control a 0.02% Triton-X100 solution was prepared in DPBS+/+. Of all compound solutions 135 μl was dispensed/well in a 96 well V-bottom plate. To this 15 μl RBC suspension was added and mixed shortly (10 sec-600 rpm). The plate was incubated 30 min at RT, with gentle agitation. Afterwards the plate was spun for 10 min at 800×g to pellet the RBC and 100-120 μl supernatant was transferred to a standard 96 wp (96 well-plate).

The mark [4] stands for this setting: HeLa, + 5 pM EGFdianthin, read-out: IC50 endosomal escape enhancing activity.
[5] abbreviates: A431, + 5 pM EGFdianthin, read-out: IC50 endosomal escape enhancing activity.
The mark [6] stands for this setting: saponin alone, read-out: IC50 toxicity.
The mark [7] stands for this setting: Table A5, read-out: IC50 nM (hemolysis).
The mark [8] stands for this setting: Table A6, read-out: IC50 nM (hemolysis).
Setting [9] is: read-out: IC50 hemolytic activity.
[10] abbreviates: Table A5, saponin alone, read-out: IC50 nM (Toxicity).
The mark [11] stands for this setting: Table A6, saponin alone, read-out: IC50 nM (Toxicity).
The mark [12] stands for this setting: Table A5, HeLa cells, saponin titrated + 5 pM EGFdianthin, read-out: IC50 nM (Activity).
[13] abbreviates: Table A6, A431 cells, saponin titrated + 5 pM EGFdianthin, read-out: IC50 nM (Activity).

The structures appear in SMILES notation. Where two headings read alike, the source gives them in different places.

The term IC50 denotes the concentration needed to halve the response being measured.

As to `CC1OC(OC2C(C)OC(OC(=O)[C@]34CCC(C)(C)CC3C3=CCC5[C@@]6(C)CC[C@H](OC7OC(C(=O)O)C(O)C(OC8OCC(O)C(O)C8O)C7OC7OC(CO)C(O)C(O)C7O)[C@@](C)(C=O)C6CC[C@@]5(C)[C@]3(C)C[C@H]4O)C(OC3OC(C)C(OC4OCC(O)C(OC5OC(CO)C(O)C(O)C5O)C4O)C(O)C3O)C2O)C(O)C(OC2OCC(O)C(O)C2O)C1O` (some centres unmarked) [SO1861-Ac—OH], the IC50 in series [1] (setting [4]) was determined as 1000 nM; in series [2] (setting [5]), 800 nM; in the series with HeLa cells (setting [6]), 10000 nM; in the series with A431 cells (setting [6]), 2000 nM. For the same molecule, the “CMC” value in series [3] was found to be 350 ± 35 µM.

Take `CC1OC(OC2C(C)OC(OC(=O)[C@]34CCC(C)(C)CC3C3=CCC5[C@@]6(C)CC[C@H](OC7OC(C(=O)NC(C)(CO)CO)C(O)C(OC8OCC(O)C(O)C8O)C7OC7OC(CO)C(O)C(O)C7O)[C@@](C)(C=O)C6CC[C@@]5(C)[C@]3(C)C[C@H]4O)C(OC3OC(C)C(OC4OCC(O)C(OC5OC(CO)C(O)C(O)C5O)C4O)C(O)C3O)C2O)C(O)C(OC2OCC(O)C(O)C2O)C1O` (some centres unmarked) [SO1861-(Ac—OH)-(Glu-AMPD)]: the IC50 in series [1] (setting [4]) is 3000 nM; with human red blood cells (setting [7]) it was 140000 nM; in the series with human red blood cells (setting [8]), 140000 nM; in the series on human red blood cells (setting [9]), 140000 nM; in series [2] (setting [5]), 3000 nM; with HeLa cells (setting [10]), above 100000 nM. Besides, in the series with A431 cells (setting [11]), the IC50 was above 100000 nM. Further, in series [3], the “CMC” value came to 90 ± 10 µM.

With `CC1OC(OC2C(C)OC(OC(=O)C34CCC(C)(C)CC3C3=CCC5C6(C)CCC(OC7OC(C(=O)O)C(O)C(OC8OCC(O)C(O)C8O)C7OC7OC(CO)C(O)C(O)C7O)C(C)(C=NNC(=O)CCCCCN7C(=O)C=CC7=O)C6CCC5(C)C3(C)CC4O)C(OC3OC(C)C(OC4OCC(O)C(OC5OC(CO)C(O)C(O)C5O)C4O)C(O)C3O)C2O)C(O)C(OC2OCC(O)C(O)C2O)C1O` (centres unmarked) [SO1861-(Ald-EMCH)-(Ac—OH)], the IC50 is 8000 nM in series [1] (setting [4]); above 1e+06 nM with human red blood cells (setting [7]); above 1e+06 nM with human red blood cells (setting [8]); 10000 nM in series [2] (setting [5]); above 100000 nM in the series on HeLa cells (setting [10]); above 100000 nM with A431 cells (setting [11]). Also, in series [3], the “CMC” value is above 300 µM.

With `CC1OC(OC2C(C)OC(OC(=O)[C@]34CCC(C)(C)CC3C3=CCC5[C@@]6(C)CC[C@H](OC7OC(C(=O)NCCN8C(=O)C=CC8=O)C(O)C(OC8OCC(O)C(O)C8O)C7OC7OC(CO)C(O)C(O)C7O)[C@@](C)(C=O)C6CC[C@@]5(C)[C@]3(C)C[C@H]4O)C(OC3OC(C)C(OC4OCC(O)C(OC5OC(CO)C(O)C(O)C5O)C4O)C(O)C3O)C2O)C(O)C(OC2OCC(O)C(O)C2O)C1O` (some centres unmarked) [SO1861-(Glu-AEM)-(Ac—OH)], the IC50 in series [1] (setting [4]) is 8000 nM; with human red blood cells (setting [7]), 100000 nM; in the series with human red blood cells (setting [8]), 100000 nM; in the series with human red blood cells (setting [9]) it was 100000 nM; in series [2] (setting [5]), 4000 nM; in the series with HeLa cells (setting [10]), above 100000 nM. In addition, in the series with A431 cells (setting [11]), the IC50 is above 100000 nM. In addition, the “CMC” value in series [3] is 90 ± 10 µM.

On to `CC(=O)OC1C(C)OC(OC2C(C)OC(OC(=O)[C@]34CCC(C)(C)CC3C3=CCC5[C@@]6(C)CC[C@H](OC7OC(C(=O)NCCN8C(=O)C=CC8=O)C(O)C(OC8OCC(O)C(O)C8O)C7OC7OC(CO)C(O)C(O)C7O)[C@@](C)(CO)C6CC[C@@]5(C)[C@]3(C)C[C@H]4O)C(OC3OC(C)C(OC4OCC(O)C(OC5OC(CO)C(O)C(O)C5O)C4O)C(O)C3O)C2O)C(O)C1OC1OCC(O)C(O)C1O` (some centres unmarked) [SO1861-(Glu-AEM)-(Ald-OH)], for which the IC50 was 40000 nM in series [1] (setting [4]); above 1e+06 nM in the series with human red blood cells (setting [7]); above 1e+06 nM in the series on human red blood cells (setting [8]); 20000 nM in series [2] (setting [5]); above 100000 nM with HeLa cells (setting [10]); above 100000 nM in the series with A431 cells (setting [11]). The “CMC” value in series [3] turned out to be 90 ± 10 µM.

On to `CC1OC(OC2C(C)OC(OC(=O)[C@]34CCC(C)(C)CC3C3=CCC5[C@@]6(C)CC[C@H](OC7OC(C(=O)NCCN8C(=O)C=CC8=O)C(O)C(OC8OCC(O)C(O)C8O)C7OC7OC(CO)C(O)C(O)C7O)[C@@](C)(CO)C6CC[C@@]5(C)[C@]3(C)C[C@H]4O)C(OC3OC(C)C(OC4OCC(O)C(OC5OC(CO)C(O)C(O)C5O)C4O)C(O)C3O)C2O)C(O)C(OC2OCC(O)C(O)C2O)C1O` (some centres unmarked) [SO1861-(Glu-AEM)-(Ald-OH)-(Ac—OH)], for which the IC50 is above 20000 nM in series [1] (setting [12]); above 1e+06 nM with human red blood cells (setting [7]); above 1e+06 nM with human red blood cells (setting [8]); above 20000 nM in series [2] (setting [13]); above 100000 nM with HeLa cells (setting [10]); above 100000 nM in the series with A431 cells (setting [11]). In addition, in series [3], the “CMC” value was above 150 µM.

Turning to `CC1OC(OC2C(C)OC(OC(=O)[C@]34CCC(C)(C)CC3C3=CCC5[C@@]6(C)CC[C@H](OC7OC(C(=O)NC(C)(CO)CO)C(O)C(OC8OCC(O)C(O)C8O)C7OC7OC(CO)C(O)C(O)C7O)[C@@](C)(CO)C6CC[C@@]5(C)[C@]3(C)C[C@H]4O)C(OC3OC(C)C(OC4OCC(O)C(OC5OC(CO)C(O)C(O)C5O)C4O)C(O)C3O)C2O)C(O)C(OC2OCC(O)C(O)C2O)C1O` (some centres unmarked) [SO1861-(Ald-OH)-(Ac—OH)-(Glu-AMPD)], the IC50 is above 20000 nM in series [1] (setting [12]); above 1e+06 nM in the series on human red blood cells (setting [7]); above 1e+06 nM in the series on human red blood cells (setting [8]); above 20000 nM in series [2] (setting [13]); above 100000 nM in the series on HeLa cells (setting [10]); above 100000 nM in the series on A431 cells (setting [11]). Also, in series [3], the “CMC” value came to 120 ± 12 µM.

Take `CC(=O)OC1C(C)OC(OC2C(C)OC(OC(=O)[C@]34CCC(C)(C)CC3C3=CCC5[C@@]6(C)CC[C@H](OC7OC(C(=O)NC(C)(CO)CO)C(O)C(OC8OCC(O)C(O)C8O)C7OC7OC(CO)C(O)C(O)C7O)[C@@](C)(CO)C6CC[C@@]5(C)[C@]3(C)C[C@H]4O)C(OC3OC(C)C(OC4OCC(O)C(OC5OC(CO)C(O)C(O)C5O)C4O)C(O)C3O)C2O)C(O)C1OC1OCC(O)C(O)C1O` (some centres unmarked) [SO1861-(Ald-OH)-(Glu-AMPD)]: the IC50 in series [1] (setting [4]) is 4000 nM; in series [2] (setting [5]), 4000 nM; in the series with HeLa cells (setting [10]), above 100000 nM; in the series with A431 cells (setting [11]), above 100000 nM. Besides, the “CMC” value in series [3] came to 50 ± 5 µM.

Take `CC(=O)OC1C(C)OC(OC2C(C)OC(OC(=O)[C@]34CCC(C)(C)CC3C3=CCC5[C@@]6(C)CC[C@H](OC7OC(C(=O)O)C(O)C(OC8OCC(O)C(O)C8O)C7OC7OC(CO)C(O)C(O)C7O)[C@@](C)(CO)C6CC[C@@]5(C)[C@]3(C)C[C@H]4O)C(OC3OC(C)C(OC4OCC(O)C(OC5OC(CO)C(O)C(O)C5O)C4O)C(O)C3O)C2O)C(O)C1OC1OCC(O)C(O)C1O` (some centres unmarked) [SO1861-Ald-OH]: the IC50 is 600 nM in series [1] (setting [4]); 30000 nM with human red blood cells (setting [7]); 30000 nM in the series with human red blood cells (setting [8]); 30000 nM in the series with human red blood cells (setting [9]); 600 nM in series [2] (setting [5]); above 100000 nM in the series with HeLa cells (setting [10]). Besides, in the series on A431 cells (setting [6]), the IC50 was determined as 7000 nM. Besides, the “CMC” value in series [3] was 135 ± 14 µM.

The values above are taken from patent US20230277612A1, “SAPONIN DERIVATIVES FOR USE IN MEDICINE” (priority 2020, published 2023).
